Data from article PMC11091976, “Shorter Peptide Nucleic Acid Probes Improve Affibody-Mediated Peptide Nucleic Acid-Based Pretargeting” (ACS Pharmacology & Translational Science, 2024).
Read-outs that look alike come from different tables or passages of the source.

Experiments:
HP9 = assay: UV melting of PNA:PNA duplex with primary probe HP9; format: physicochemical; details: UV 260 nm, 20-95 °C at 1 °C/min, 5 μM each probe, 10 mM phosphate buffer, 10 mM KCl, pH 7.4
Method: (§1) The melting temperatures of secondary probes after duplex formation with primary probes were also measured by monitoring the absorbance at 260 nm as a function of temperature (see Figure S23). All probe pairs had melting temperatures well above 37 °C (body temperature) and ranged from 51 °C for the HP6:HP19 pair with 6 complementary bases to 82 °C for the previously studied HP15:HP18 pair with 15 complementary bases (see Figure 3B and Table 2). […] This secondary structure is typically adopted by antiparallel and L-amino acid-modified PNA–PNA duplexes at neutral pH.[49]
(§2) Figure S23: Normalized temperature melting profiles from 20–95°C for different primary and secondary probe pairs. UV melting curves at 260 nm. (A) HP15 (15-mer) toward secondary 15-, 12- and 9-mers. (B) HP12 (12-mer) toward secondary 12-, 9-, 8-, 7- and 6-mers. (C) HP9 (9-mer) toward secondary 9-, 8-, 7- and 6-mers. (D) HP6 (6-mer) toward secondary 6-mer.
(§3) Concentrations of duplexes in A–D are 5 μM in 10 mM […] with 10 mM KCl at pH 7.4.
(§4) (also on this page, place not known: Fraction melted Fraction meltedFraction melted Fraction melted) […]
(§5) Supplementary Material and methods […]
(§6) Biophysical characterization of PNA:PNA duplexes using CD Spectroscopy and […]
(§7) Circular dichroism (CD) and UV melts of PNA:PNA duplexes were measured on a CD spectrometer (Applied Photophysics, Leatherhead, UK) with Peltier temperature control and an external temperature probe. RP-HPLC purified and lyophilized PNA probes were dissolved in 10 mM phosphate buffer with 10 mM KCl at pH 7.4. Samples contained both primary and complementary secondary PNA probes at a final concentration of 5 µM for each probe. These samples were initially heated to 95°C for five minutes, allowed to cool to room temperature, and then transferred to a quartz cuvette with a 1.0 cm path length. A temperature probe was inserted into the solution through the cuvette's rubber cap. […]
(§8) from 20°C to 95°C with a 1°C/min temperature gradient. Simultaneously, the UV absorbance at 260 nm was recorded as a function of temperature. Fraction melted data was calculated […]
(§9) Fraction melted = 1 ― UVds― UVss , where UVss and UVds are the UV absorbances at 95°C and 20°C, respectively. The melting temperature (Tm) was determined as the maximum of the first derivative of the melting curve and was computed using the Global 3 analysis software (Applied Photophysics, […]
(§10) CD spectra in the range of 200–300 nm were recorded for all hybridized PNA:PNA pairs at 20°C before and after the UV melting experiments. All CD spectra were baseline subtracted and presented as an average of five scans.

HP12 = assay: UV melting of PNA:PNA duplex with primary probe HP12; format: physicochemical; details: UV 260 nm, 20-95 °C at 1 °C/min, 5 μM each probe, 10 mM phosphate buffer, 10 mM KCl, pH 7.4
Method: as §1, §2, §3, §4, §5, §6, §7, §8, §9, §10

Z-HP9 [1] = assay: SPR off-rate screening (single-cycle kinetics), immobilized Z-HP9; format: binding; details: primary probe HP9 (immobilized Z-HP9), 25 °C, PBS-T pH 7.4, 120 nM HP16/HP20 or 362 nM HP21/HP19, dissociation 150 min, 1:1 model, duplicates
Method: (§11) The stability of new pretargeting probe combinations was assessed using SPR, and duplex melting temperatures were measured with UV–vis spectroscopy. In SPR, a high concentration of the secondary probe was injected over immobilized primary agents, and the dissociation of the hybridized complexes was monitored over 150 min (see Figures 3A, S22, and Table 2).
(§12) We utilized SPR on a Biacore T200 instrument (Cytiva) to examine how secondary PNA probes (6-mer HP19, 7-mer HP21, 8-mer HP20, and 9-mer HP16) bind to primary agents. These experiments were conducted using dextran-coated CM5 sensor chips and PBS-T buffer at pH 7.4. The ligands were immobilized through a standard EDC/NHS coupling method, and the chip surface was sealed with ethanolamine. A reference surface with no primary agent was also included.
(§13) For ranking the off-rate (kd) of the secondary probes, we employed single-cycle kinetics (SCK) at 25 °C with a flow rate of 50 μL/min. […] Secondary PNA probes were injected at various concentrations, and dissociation was monitored for 10,000 s. To regenerate the chip surface, we used two 30 s injections of 10 mM glycine-HCl, pH 1.5.
(§14) All SPR experiments were performed in duplicate, and data analysis was conducted using the Biacore T200 Evaluation software version 2.0 with a 1:1 binding model.
(§15) Figure S22: Representative SPR sensorgrams of the dissociation phase of HP16 (9-mer), HP20 (8-mer), HP21 (7-mer) and HP19 […]
(§16) After injection with the secondary probe
(§17) (120 nM of HP16 and HP20 or 362 nM of HP21 and HP19) the dissociation of the formed complex was followed for 150 minutes. All experiments were done in duplicates, and the data presented is double-referenced (reference channel and buffer injection are subtracted).
(§18) (1 picture or pasted object on this page, not shown here)

Z-HP15 [2] = assay: SPR off-rate screening (single-cycle kinetics), immobilized Z-HP15; format: binding; details: primary probe HP15 (immobilized Z-HP15), 25 °C, PBS-T pH 7.4, 120 nM HP16/HP20 or 362 nM HP21/HP19, dissociation 150 min, 1:1 model, duplicates
Method: as §11, §12, §13, §14, §15, §16, §17, §18

Z-HP12 = assay: SPR off-rate screening (single-cycle kinetics), immobilized Z-HP12; format: binding; details: primary probe HP12 (immobilized Z-HP12), 25 °C, PBS-T pH 7.4, 120 nM HP16/HP20 or 362 nM HP21/HP19, dissociation 150 min, 1:1 model, duplicates
Method: as §11, §12, §13, §14, §15, §16, §17, §18

Z-HP9 [3] = assay: Multicycle kinetic SPR, immobilized Z-HP9; format: binding; details: MCK SPR
Method: as §12
Association and dissociation times were set at 700 and 1800 s, respectively, with regeneration accomplished through a 30 s injection of 10 mM glycine-HCl, pH 1.5.
as §14

[4] = Solubility of secondary probes in labeling buffer; format: physicochemical; details: 0.2 M NH4Ac; for increase in solubility compared to the 15-mer HP18 / maximum soluble concentration: pH 5.5, 25 °C; for maximum soluble concentration: heated 95 °C 5 min, 18-h static incubation, centrifugation, UV 260 nm of supernatant, highest concentration with at least 95% still soluble, duplicates
Method: However, as we moved to shorter PNA oligomers, solubility saw a substantial, nonlinear increase. […] For example, at 25 °C, the maximum soluble concentration of HP17 (12-mer) was around 6 μM. […]
pH 5.5 at 25°C. Dilution series of HPLC-purified and lyophilized secondary probes (1, 3, 6, 9, 13, 26, 39, 52 and 65 µM) for […]
samples were heated at 95°C for five minutes and concentration of the soluble fraction was determined by UV absorption at 260 nm before (grey bars), and after (black bars) an 18-hour static incubation at 25°C. Duplicates were prepared of all samples and the data is presented as the mean ± SD. The maximum soluble concentration of each probe, indicated in panels A-E as a dotted line, was defined as the highest concentration at which at least 95% is still in the soluble fraction after an 18-hour incubation at 25°C. PNA-aggregates are temperature-labile, as exemplified in panel C for 82 µM HP17.
After an 18-hour incubation 25°C, 6 µM is left in the soluble fraction (left black bar) but heating the sample at 95 °C for five minutes completely redissolved HP17 aggregates into solution (right black bar).
as §18
Supplementary Material and methods
Solubility of secondary probes
HPLC-purified and freeze-dried secondary probes were resuspended in 10 mM NaAc, pH 3.5-3.6 and freeze-dried in smaller aliquots. The secondary probes were re-dissolved in 0.2 M NH4Ac, pH 5.5, and the samples were heated at 95 °C for five minutes to ensure complete dissolvement. Dilution series of secondary probes (1, 3, 6, 9, 13, 26, 39, 52 and 65 μM) for […]
NH4Ac, pH 5.5. The samples were then left for an 18-hour static incubation at 25 C, before being centrifugated at 21,100 x g for 5 minutes on a standard benchtop centrifuge (Eppendorf). The supernatants were transferred to fresh 1.5 mL Eppendorf-tubes, and the […]

Z-HP15 [5] = details: SPR, primary probe HP15; cited from earlier work
Description: Table 2 Dissociation Rate Constants (kds) and Melting Temperatures (Tms) of the PNA Probe Duplexes ^a | column: kd (s^–1)

HP15 = assay: UV melting of PNA:PNA duplex with primary probe HP15; format: physicochemical; details: UV 260 nm, 20-95 °C at 1 °C/min, 5 μM each probe, 10 mM phosphate buffer, 10 mM KCl, pH 7.4
Method: as §1, §2, §3, §4, §5, §6
(§19) Circular dichroism (CD) and UV melts of PNA:PNA duplexes were measured on a CD spectrometer (Applied Photophysics, Leatherhead, UK) with Peltier temperature control and an external temperature probe. […]
as §8, §9
CD spectra in the range of 200–300 nm were recorded for all hybridized PNA:PNA pairs at 20°C before and after the UV melting experiments. […]

HP6 = assay: UV melting of PNA:PNA duplex with primary probe HP6; format: physicochemical; details: UV 260 nm, 20-95 °C at 1 °C/min, 5 μM each probe, 10 mM phosphate buffer, 10 mM KCl, pH 7.4
Method: as §1
Figure S23: Normalized temperature melting profiles from 20–95°C for different primary and secondary probe pairs. UV melting curves at 260 nm. […]
as §19, §8, §9

Substance	Tm (HP9) [°C]	Tm (HP12) [°C]	kd (Z-HP9 [1])	kd (Z-HP15 [2])	kd (Z-HP12)	ka (Z-HP9 [3]; primary probe HP9 (Z-HP9 immobilized), 25 °C, 1.4-70 nM, 1:1 model, duplicates)	Kd (Z-HP9 [3]; primary probe HP9, 25 °C) [nM]	kd (Z-HP9 [3]; primary probe HP9, 25 °C)	Kd (Z-HP9 [3]; primary probe HP9, 37 °C) [nM]	ka (Z-HP9 [3]; primary probe HP9, 37 °C)	kd (Z-HP9 [3]; primary probe HP9, 37 °C)	increase in solubility compared to the 15-mer HP18 [4]	maximum soluble concentration [4] [µM]	kd (Z-HP15 [5])	Tm (HP15) [°C]	solubility after 5 min at 95 °C ([4]; pH 5.5, 82 µM sample reheated at 95 °C for 5 min after 18 h at 25 °C, UV 260 nm)	Tm (HP6) [°C]
DOTA-AEEA-SS-caccagg-EEY-NH2 [HP21, 7-mer secondary PNA probe with DOTA]	60	60	9.2 × 10^–5 s^–1	5.5 × 10^–5 s^–1	4.5 × 10^–5 s^–1	–	–	–	–	–	–	–	–	–	–	–	–
DOTA-AEEA-SS-acaccagg-EEY-NH2 [HP20, 8-mer secondary PNA probe with DOTA]	64	66	2.6 × 10^–5 s^–1	1.4 × 10^–5 s^–1	1.6 × 10^–5 s^–1	1.2 × 10^5 M^–1 s^–1	0.55	6.6 × 10^–5 s^–1	0.79	2.2 × 10^5 M^–1 s^–1	1.7 × 10^–4 s^–1	~100 fold	370	–	–	–	–
DOTA-AEEA-SS-atcaacaccagg-EEY-NH2 [HP17, 12-mer secondary PNA probe with DOTA]	–	75	–	–	–	–	–	–	–	–	–	approximately 2 fold	6	<10^–5 ^b s^–1	78	exceeded 82 μM	–
DOTA-AEEA-SS-accagg-EEY-NH2 [HP19, 6-mer secondary PNA probe with DOTA]	55	56	2.8 × 10^–4 s^–1	5.0 × 10^–4 s^–1	6.2 × 10^–4 s^–1	–	–	–	–	–	–	–	–	–	–	–	51
DOTA-AEEA-SS-atcatcaacaccagg-EEY-NH2 [HP18, 15-mer secondary PNA probe with DOTA]	–	–	–	–	–	–	–	–	–	–	–	–	3	<10^–5 ^b s^–1	82	–	–
